{"source": "patent US20140357713A1", "about": "“ANTIMICROBIAL COMPOUNDS AND METHODS OF USE” (NexMed Holdings, Inc., priority 2012, published 2014)", "test_in_all_cases": "MIC assay with different strains, Example 35", "format_in_all_cases": "cell-based", "key": {"[1]": {"tested_on": "Klebsiella pneumonia (ATCC 11296)", "how_it_was_run": "(§1)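 Each strain was adjusted to 10^7–10^8 CFU/mL, diluted 1:200 in Mueller Hinton broth, and tested per M202.R02. The MIC was the lowest concentration without turbidity after incubation, with growth confirmed by streaking turbid tubes onto agar.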"}, "[2]": {"tested_on": "Escherichia coli ATCC 25922", "conditions": "for MIC: Example 35", "how_it_was_run": "as §1"}, "[3]": {"tested_on": "Enterococcus faecalis (ATCC 19433)", "how_it_was_run": "as §1"}, "[4]": {"tested_on": "Haemophilus influenza (ATCC 19418)", "how_it_was_run": "as §1"}, "[5]": {"tested_on": "Enterobacter cloacae (ATCC 13047)", "how_it_was_run": "as §1"}, "[6]": {"tested_on": "Corynebacterium jeikeium (ATCC 43734)", "how_it_was_run": "as §1"}, "[7]": {"tested_on": "Enterococcus faecium (ATCC 19434)", "how_it_was_run": "as §1"}}, "note": "Where a name gives a salt, the structure may show the parent alone. Read-outs that look alike come from different tables or passages of the source."}
{"smiles": "CCCCCCCCCCCCOC(=O)C(C)N(C)C", "note": "(centres unmarked) [Nex-05, Dodecyl 2-(dimethylamino)propanoate hydrochloride]", "values": [{"measurement": "MIC", "setting": "[1]; Example 35", "result": 0.625, "unit": "%"}, {"measurement": "Growth/no growth", "setting": "[1]; Sample Concentration 0.039%", "result": "Growth"}, {"measurement": "Growth/no growth", "setting": "[1]; Sample Concentration 0.078%", "result": "Growth"}, {"measurement": "Growth/no growth", "setting": "[1]; Sample Concentration 0.156%", "result": "Growth"}, {"measurement": "MIC", "setting": "[2]", "result": 1.25, "unit": "%"}, {"measurement": "Growth/no growth", "setting": "[2]; Sample Concentration 0.039%", "result": "Growth"}, {"measurement": "Growth/no growth", "setting": "[2]; Sample Concentration 0.078%", "result": "Growth"}, {"measurement": "Growth/no growth", "setting": "[2]; Sample Concentration 0.156%", "result": "Growth"}, {"measurement": "Growth/no growth", "setting": "[2]; Sample Concentration 0.313%", "result": "Growth"}, {"measurement": "Growth/no growth", "setting": "[2]; Sample Concentration 0.625%", "result": "Growth"}, {"measurement": "MIC", "setting": "[3]; Example 35", "result": 1.25, "unit": "%"}, {"measurement": "Growth/no growth", "setting": "[3]; Sample Concentration 0.039%", "result": "Growth"}, {"measurement": "Growth/no growth", "setting": "[3]; Sample Concentration 0.078%", "result": "Growth"}, {"measurement": "Growth/no growth", "setting": "[3]; Sample Concentration 0.156%", "result": "Growth"}, {"measurement": "Growth/no growth", "setting": "[3]; Sample Concentration 0.313%", "result": "Growth"}, {"measurement": "Growth/no growth", "setting": "[3]; Sample Concentration 0.625%", "result": "Growth"}, {"measurement": "MIC", "setting": "[4]; Example 35", "result": 5, "unit": "%"}, {"measurement": "Growth/no growth", "setting": "[4]; Sample Concentration 0.039%", "result": "Growth"}, {"measurement": "Growth/no growth", "setting": "[4]; Sample Concentration 0.078%", "result": "Growth"}, {"measurement": "Growth/no growth", "setting": "[4]; Sample Concentration 0.156%", "result": "Growth"}, {"measurement": "Growth/no growth", "setting": "[4]; Sample Concentration 0.313%", "result": "Growth"}, {"measurement": "Growth/no growth", "setting": "[4]; Sample Concentration 0.625%", "result": "Growth"}, {"measurement": "Growth/no growth", "setting": "[4]; Sample Concentration 1.25%", "result": "Growth"}, {"measurement": "Growth/no growth", "setting": "[4]; Sample Concentration 2.5%", "result": "Growth"}, {"measurement": "MIC", "setting": "[5]; Example 35", "result": 0.625, "unit": "%"}, {"measurement": "Growth/no growth", "setting": "[5]; Sample Concentration 0.039%", "result": "Growth"}, {"measurement": "Growth/no growth", "setting": "[5]; Sample Concentration 0.078%", "result": "Growth"}, {"measurement": "Growth/no growth", "setting": "[5]; Sample Concentration 0.156%", "result": "Growth"}, {"measurement": "Growth/no growth", "setting": "[5]; Sample Concentration 0.313%", "result": "Growth"}, {"measurement": "MIC", "setting": "[6]; Example 35", "result": 0.625, "unit": "%"}, {"measurement": "Growth/no growth", "setting": "[6]; Sample Concentration 0.039%", "result": "Growth"}, {"measurement": "Growth/no growth", "setting": "[6]; Sample Concentration 0.078%", "result": "Growth"}, {"measurement": "Growth/no growth", "setting": "[6]; Sample Concentration 0.156%", "result": "Growth"}, {"measurement": "Growth/no growth", "setting": "[6]; Sample Concentration 0.313%", "result": "Growth"}]}
{"smiles": "CCCCCCCCCCCCOC(=O)C(C)NC.Cl", "note": "(centres unmarked) [Nex-59, Dodecyl 2-(methylamino)propanoate hydrochloride]", "values": [{"measurement": "MIC", "setting": "[1]; Example 35", "result": 0.08, "unit": "%"}, {"measurement": "MIC", "setting": "[1]; Klebsiella pneumoniae, ATCC11296, Table 19 summary, read-out: MIC", "result": 800, "unit": "µg/mL"}, {"measurement": "Growth/no growth", "setting": "[1]; Sample Concentration 0.01%", "result": "Growth"}, {"measurement": "Growth/no growth", "setting": "[1]; Sample Concentration 0.02%", "result": "Growth"}, {"measurement": "Growth/no growth", "setting": "[1]; Sample Concentration 0.04%", "result": "Growth"}, {"measurement": "Growth/no growth", "setting": "[1]; Sample Concentration 0.08%", "result": "No"}, {"measurement": "Growth/no growth", "setting": "[1]; Sample Concentration 0.16%", "result": "No"}, {"measurement": "Growth/no growth", "setting": "[1]; Sample Concentration 0.32%", "result": "No"}, {"measurement": "Growth/no growth", "setting": "[1]; Sample Concentration 0.63%", "result": "No"}, {"measurement": "Growth/no growth", "setting": "[1]; Sample Concentration 1.25%", "result": "No"}, {"measurement": "Growth/no growth", "setting": "[1]; Sample Concentration 2.5%", "result": "No"}, {"measurement": "MIC", "setting": "[2]", "result": 0.16, "unit": "%"}, {"measurement": "Growth/no growth", "setting": "[2]; Sample Concentration 0.01%", "result": "Growth"}, {"measurement": "Growth/no growth", "setting": "[2]; Sample Concentration 0.02%", "result": "Growth"}, {"measurement": "Growth/no growth", "setting": "[2]; Sample Concentration 0.04%", "result": "Growth"}, {"measurement": "Growth/no growth", "setting": "[2]; Sample Concentration 0.08%", "result": "Growth"}, {"measurement": "Growth/no growth", "setting": "[2]; Sample Concentration 0.16%", "result": "No"}, {"measurement": "Growth/no growth", "setting": "[2]; Sample Concentration 0.32%", "result": "No"}, {"measurement": "Growth/no growth", "setting": "[2]; Sample Concentration 0.63%", "result": "No"}, {"measurement": "Growth/no growth", "setting": "[2]; Sample Concentration 1.25%", "result": "No"}, {"measurement": "Growth/no growth", "setting": "[2]; Sample Concentration 2.5%", "result": "No"}, {"measurement": "MIC", "setting": "[7]; Enterococcus faecium, ATCC19434, Table 19 summary, read-out: MIC", "result": 400, "unit": "µg/mL"}, {"measurement": "MIC", "setting": "[7]; Example 35", "result": 0.04, "unit": "%"}, {"measurement": "Growth/no growth", "setting": "[7]; Sample Concentration 0.01%", "result": "Growth"}, {"measurement": "Growth/no growth", "setting": "[7]; Sample Concentration 0.02%", "result": "Growth"}, {"measurement": "MIC", "setting": "[3]; Enterococcus faecalis, ATCC19433, Table 19 summary, read-out: MIC", "result": "≥ 100", "unit": "µg/mL"}, {"measurement": "MIC", "setting": "[3]; Example 35", "result": "≦0.01%"}, {"measurement": "Growth/no growth", "setting": "[3]; Sample Concentration 0.01%", "result": "No"}, {"measurement": "Growth/no growth", "setting": "[3]; Sample Concentration 0.02%", "result": "No"}, {"measurement": "Growth/no growth", "setting": "[3]; Sample Concentration 0.04%", "result": "No"}, {"measurement": "Growth/no growth", "setting": "[3]; Sample Concentration 0.08%", "result": "No"}, {"measurement": "Growth/no growth", "setting": "[3]; Sample Concentration 0.16%", "result": "No"}, {"measurement": "Growth/no growth", "setting": "[3]; Sample Concentration 0.32%", "result": "No"}, {"measurement": "Growth/no growth", "setting": "[3]; Sample Concentration 0.63%", "result": "No"}, {"measurement": "Growth/no growth", "setting": "[3]; Sample Concentration 1.25%", "result": "No"}, {"measurement": "Growth/no growth", "setting": "[3]; Sample Concentration 2.5%", "result": "No"}, {"measurement": "MIC", "setting": "[4]; Example 35", "result": "≦0.01%"}, {"measurement": "MIC", "setting": "[4]; Haemophilus, ATCC19418", "result": "≥ 100", "unit": "µg/mL"}, {"measurement": "Growth/no growth", "setting": "[4]; Sample Concentration 0.01%", "result": "No"}, {"measurement": "Growth/no growth", "setting": "[4]; Sample Concentration 0.02%", "result": "No"}, {"measurement": "Growth/no growth", "setting": "[4]; Sample Concentration 0.04%", "result": "No"}, {"measurement": "Growth/no growth", "setting": "[4]; Sample Concentration 0.08%", "result": "No"}, {"measurement": "Growth/no growth", "setting": "[4]; Sample Concentration 0.16%", "result": "No"}, {"measurement": "Growth/no growth", "setting": "[4]; Sample Concentration 0.32%", "result": "No"}, {"measurement": "Growth/no growth", "setting": "[4]; Sample Concentration 0.63%", "result": "No"}, {"measurement": "Growth/no growth", "setting": "[4]; Sample Concentration 1.25%", "result": "No"}, {"measurement": "Growth/no growth", "setting": "[4]; Sample Concentration 2.5%", "result": "No"}, {"measurement": "MIC", "setting": "[5]; Enterobacter cloacae, ATCC13047, Table 19 summary, read-out: MIC", "result": 1600, "unit": "µg/mL"}, {"measurement": "MIC", "setting": "[5]; Example 35", "result": 0.16, "unit": "%"}, {"measurement": "Growth/no growth", "setting": "[5]; Sample Concentration 0.01%", "result": "Growth"}, {"measurement": "Growth/no growth", "setting": "[5]; Sample Concentration 0.02%", "result": "Growth"}, {"measurement": "Growth/no growth", "setting": "[5]; Sample Concentration 0.04%", "result": "Growth"}, {"measurement": "Growth/no growth", "setting": "[5]; Sample Concentration 0.08%", "result": "Growth"}, {"measurement": "MIC", "setting": "[6]; Corynebacterium jeikeium, ATCC43734, Table 19 summary, read-out: MIC", "result": "≥ 100", "unit": "µg/mL"}, {"measurement": "MIC", "setting": "[6]; Example 35", "result": "≦0.01%"}, {"measurement": "Growth/no growth", "setting": "[6]; Sample Concentration 0.01%", "result": "No"}, {"measurement": "Growth/no growth", "setting": "[6]; Sample Concentration 0.02%", "result": "No"}, {"measurement": "Growth/no growth", "setting": "[6]; Sample Concentration 0.04%", "result": "No"}, {"measurement": "Growth/no growth", "setting": "[6]; Sample Concentration 0.08%", "result": "No"}, {"measurement": "Growth/no growth", "setting": "[6]; Sample Concentration 0.16%", "result": "No"}, {"measurement": "Growth/no growth", "setting": "[6]; Sample Concentration 0.32%", "result": "No"}, {"measurement": "Growth/no growth", "setting": "[6]; Sample Concentration 0.63%", "result": "No"}, {"measurement": "Growth/no growth", "setting": "[6]; Sample Concentration 1.25%", "result": "No"}, {"measurement": "Growth/no growth", "setting": "[6]; Sample Concentration 2.5%", "result": "No"}]}
